≈ marks a conversion by molar mass, not a printed value. Where two headings read alike, the source gives them in different places.
Experiments:
S. aureus ATCC25923 = experiment: Broth microdilution MIC, control strain; assay type: cell-based; conditions: for Category: against CLSI values; on Category: key: S, susceptible; R, resistant
[1] = tested on: Lactobacillus reuteri CECT 9859; experiment: Broth microdilution MIC (MRS and LSM medium); assay type: cell-based; conditions: for Category (LSM) / Category (MRS): against EFSA (2018) breakpoints; on Category (LSM): key: S, susceptible; R, resistant; on Category (MRS): key: S, susceptible; R, resistant
[2] = Staphylococcus aureus, ATCC25923, MH medium, control strain, read-out: MIC
[3] = Limosilactobacillus reuteri, CECT9859, 24 h, LSM medium, anaerobic, 37° C., 24 h, read-out: MIC
[4] = Limosilactobacillus reuteri, CECT9859, 24 h, MRS medium, anaerobic, 37° C., 24 h, read-out: MIC
[5] = Staphylococcus aureus, ATCC25923

Row | Molecule | Category (S. aureus ATCC25923; MH medium) | MIC (S. aureus ATCC25923; [2]) | Category (LSM) ([1]; LSM medium) | MIC [1, 3] | MIC [1, 4] | Category (MRS) ([1]; MRS medium) | MIC (S. aureus ATCC25923; [5]) | MIC ([1]; Limosilactobacillus reuteri, CECT9859, 24 h) | Susceptibility of the strain ([1]; MRS and LSM) | MIC (S. aureus ATCC25923; MH medium, control strain) | MIC ([1]; LSM medium, anaerobic, 37° C., 24 h) | MIC ([1]; MRS medium, anaerobic, 37° C., 24 h)
1 | CC1(C)S[C@@H]2[C@H](NC(=O)[C@H](N)c3ccccc3)C(=O)N2[C@H]1C(=O)O [Ampicillin] | S | 0.125 µg/mL (≈ 0.358 µM) | S | 0.25 µg/mL (≈ 0.715 µM) | 0.25 µg/mL (≈ 0.715 µM) | S |  |  |  |  |  | 
2 | O=C(N[C@H](CO)[C@H](O)c1ccc([N+](=O)[O-])cc1)C(Cl)Cl [Chloramphenicol] | S | 4 µg/mL (≈ 12.4 µM) | S | 4 µg/mL (≈ 12.4 µM) | 4 µg/mL (≈ 12.4 µM) | S |  |  |  |  |  | 
3 | CCC[C@@H]1C[C@@H](C(=O)N[C@@H]([C@H]2O[C@H](SC)[C@H](O)[C@@H](O)[C@H]2O)[C@H](C)Cl)N(C)C1 [Clindamycin] | S |  | S | 0.25 µg/mL (≈ 0.588 µM) | 0.25 µg/mL (≈ 0.588 µM) | S | 0.125 µg/mL (≈ 0.294 µM) |  |  |  |  | 
4 | CC[C@H]1OC(=O)[C@H](C)[C@@H](O[C@H]2C[C@@](C)(OC)[C@@H](O)[C@H](C)O2)[C@H](C)[C@@H](O[C@@H]2O[C@H](C)C[C@H](N(C)C)[C@H]2O)[C@](C)(O)C[C@@H](C)C(=O)[C@H](C)[C@@H](O)[C@]1(C)O [Erythromycin] | S |  | S |  | 0.25 µg/mL (≈ 0.341 µM) | S | 0.125 µg/mL (≈ 0.17 µM) | 0.125 µg/mL (≈ 0.17 µM) |  |  |  | 
5 | NC[C@H]1O[C@H](O[C@H]2[C@H](O)[C@@H](O[C@H]3O[C@H](CO)[C@@H](O)[C@H](N)[C@H]3O)[C@H](N)C[C@@H]2N)[C@H](O)[C@@H](O)[C@@H]1O [Kanamycin] | S | 2 µg/mL (≈ 4.13 µM) | S | 64 µg/mL (≈ 132 µM) | 512 µg/mL (≈ 1060 µM) | R |  |  |  |  |  | 
6 | [H]/N=C(/N)N[C@H]1[C@H](O)[C@@H](O)[C@H](O[C@@H]2O[C@@H](C)[C@](O)(C=O)[C@H]2O[C@@H]2O[C@@H](CO)[C@H](O)[C@@H](O)[C@@H]2NC)[C@@H](N/C(N)=N\[H])[C@@H]1O [Streptomycin] |  | 2 µg/mL (≈ 3.44 µM) | S | 16 µg/mL (≈ 27.5 µM) | 128 µg/mL (≈ 220 µM) | R |  |  |  |  |  | 
7 | CN(C)[C@@H]1C(O)=C(C(N)=O)C(=O)[C@@]2(O)C(O)=C3C(=O)c4c(O)cccc4[C@@](C)(O)[C@H]3C[C@@H]12 [Tetracycline] | S | 1 µg/mL (≈ 2.25 µM) | S | 8 µg/mL (≈ 18 µM) | 4 µg/mL (≈ 9 µM) | S |  |  |  |  |  | 
8 | CN[C@H](CC(C)C)C(=O)N[C@H]1C(=O)N[C@@H](CC(N)=O)C(=O)N[C@H]2C(=O)N[C@H]3C(=O)N[C@H](C(=O)N[C@H](C(=O)O)c4cc(O)cc(O)c4-c4cc3ccc4O)[C@H](O)c3ccc(c(Cl)c3)Oc3cc2cc(c3O[C@@H]2O[C@H](CO)[C@@H](O)[C@H](O)[C@H]2O[C@H]2C[C@](C)(N)[C@H](O)[C@H](C)O2)Oc2ccc(cc2Cl)[C@H]1O [Vancomycin] | S |  | R | 512 µg/mL (≈ 353 µM) | > 512 µg/mL | R | 1 µg/mL (≈ 0.69 µM) |  | resistant |  |  | 
9 | Gentamicin | S |  | S |  |  | R |  |  |  | 0.125 µg/mL | 2 µg/mL | 16 µg/mL
